Here are results for seven compounds from patent US5854002A (Rhone Poulenc, Inc., priority 1996, dated 1998).

One assay deals with Housefly heads. The note with it: from Lunt et al. (1985), cited from earlier work; for IC50: half-maximal displacement of [3H] muscimol, read-out: IC50, Fly Heads.
Assay [1] deals with T1, Drosophila Grd and LCCH3 (Drosophila melanogaster, UniProt Q08832+Q24352).
T1 construct: made in house; host or cells: High Five (Trichoplusia ni) cells, co-infected with vBP8-Grd and vBP8-LCCH3
T1 sequence (Q24352 59-686): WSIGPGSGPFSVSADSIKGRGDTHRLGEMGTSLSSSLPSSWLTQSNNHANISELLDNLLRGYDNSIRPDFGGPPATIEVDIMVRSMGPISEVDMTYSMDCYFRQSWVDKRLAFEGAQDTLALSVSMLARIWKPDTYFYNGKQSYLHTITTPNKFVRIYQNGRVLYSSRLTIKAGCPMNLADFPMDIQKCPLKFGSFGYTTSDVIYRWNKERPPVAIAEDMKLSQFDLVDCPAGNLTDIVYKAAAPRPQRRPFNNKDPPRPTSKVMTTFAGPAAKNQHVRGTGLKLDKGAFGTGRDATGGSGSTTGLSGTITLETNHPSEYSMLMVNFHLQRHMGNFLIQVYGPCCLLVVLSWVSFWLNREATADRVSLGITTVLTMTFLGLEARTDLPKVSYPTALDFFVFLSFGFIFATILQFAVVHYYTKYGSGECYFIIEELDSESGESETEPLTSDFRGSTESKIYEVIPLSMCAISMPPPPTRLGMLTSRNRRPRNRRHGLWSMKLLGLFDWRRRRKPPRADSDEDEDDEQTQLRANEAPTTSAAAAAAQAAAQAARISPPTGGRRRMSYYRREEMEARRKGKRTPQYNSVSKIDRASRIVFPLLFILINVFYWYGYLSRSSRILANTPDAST
T1 sequence (Q08832 21-496): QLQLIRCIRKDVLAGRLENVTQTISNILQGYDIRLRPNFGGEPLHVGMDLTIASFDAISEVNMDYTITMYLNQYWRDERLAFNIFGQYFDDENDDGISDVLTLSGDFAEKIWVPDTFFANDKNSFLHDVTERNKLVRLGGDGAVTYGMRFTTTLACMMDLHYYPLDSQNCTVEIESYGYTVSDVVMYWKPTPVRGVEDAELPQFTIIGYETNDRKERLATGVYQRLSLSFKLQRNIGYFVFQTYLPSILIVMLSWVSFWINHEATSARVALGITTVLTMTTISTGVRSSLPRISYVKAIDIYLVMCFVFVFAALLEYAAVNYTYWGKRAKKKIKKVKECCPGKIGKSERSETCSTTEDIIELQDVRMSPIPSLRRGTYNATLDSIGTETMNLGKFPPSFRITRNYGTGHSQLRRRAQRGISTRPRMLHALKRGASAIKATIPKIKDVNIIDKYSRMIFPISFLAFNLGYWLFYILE
Kind of assay: [3H] muscimol radioligand binding assay, membranes of High Five cells co-infected with vBP8-Grd/vBP8-LCCH3. As to the method: (§1) High Five™ cells (derived from the cabbage loper, Trichoplusia ni, Invitrogen Corp.) were infected with vBP8-Rdl, vBP8-LCCH3, or vBP8-Grd, either singly or in various combinations. Cells were harvested at 3 days post-infection in tubes of approximately 6×10^7 cells per tube, the cells were pelleted by centrifugation, the supernatants discarded, and the pellets immediately stored at -80° C. This amount of tissue is sufficient for one 96-well microtiter plate. Membranes were prepared by first thawing and then resuspending the cell pellet in 25 mL of 10 mM phosphate buffer pH 7.4. The cells were gently homogenized with five strokes in a glass/Teflon homogenizer and the membranes pelleted by centrifugation at 120,000 g for 30 minutes. The membrane pellet was resuspended in 25 mL of 10 mM phosphate buffer pH 7.4, re-pelleted as above, and the pellet finally resuspended in 3 mL of buffer. The protein concentration was determined by the Bradford method (Bradford (1976) Anal. Biochem. 79:248) and then adjusted to 625 μg of protein per mL of 10 mM PBS, pH 7.4.
The radioligand binding assays were composed of 200 μL membrane preparation (containing 125 μg protein), 100 μL of [^3 H] muscimol (to give a final concentration of 5 nM), 20 μL of unlabeled test compound, buffer or unlabeled muscimol, and 680 μL of 10 mM PBS, pH 7.4. […] The reactions were incubated for 90 minutes at 4° C., and then terminated by filtration through Whatman GF/B glass fiber filters. Filters were washed with two 5 mL aliquots of cold buffer, and the radioactivity remaining on the filters was determined by liquid scintillation. Multiple assays were performed to test numerous compounds.

For another assay, the target named is T2, Drosophila Rdl (Drosophila melanogaster, UniProt P25123).
T2 construct: excised the full-length cDNA encoding Rdl; made in house; host or cells: High Five (Trichoplusia ni) cells, baculovirus vBP8-Rdl
T2 sequence (P25123 45-606): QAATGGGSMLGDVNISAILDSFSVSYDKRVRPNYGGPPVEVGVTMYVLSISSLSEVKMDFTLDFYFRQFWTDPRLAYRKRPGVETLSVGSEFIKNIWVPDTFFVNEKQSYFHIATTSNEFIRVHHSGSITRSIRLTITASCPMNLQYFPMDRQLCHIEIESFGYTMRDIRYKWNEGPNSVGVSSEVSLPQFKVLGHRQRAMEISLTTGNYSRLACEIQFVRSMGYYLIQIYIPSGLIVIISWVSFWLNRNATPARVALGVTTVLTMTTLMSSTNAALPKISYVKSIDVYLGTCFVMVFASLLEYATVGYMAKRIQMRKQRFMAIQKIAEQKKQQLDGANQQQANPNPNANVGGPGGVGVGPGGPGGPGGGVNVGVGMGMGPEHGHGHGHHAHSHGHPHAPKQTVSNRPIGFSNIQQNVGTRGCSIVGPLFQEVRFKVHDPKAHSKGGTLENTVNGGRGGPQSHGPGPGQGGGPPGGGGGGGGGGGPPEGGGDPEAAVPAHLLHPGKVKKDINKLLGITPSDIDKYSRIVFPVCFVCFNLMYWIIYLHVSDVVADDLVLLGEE
Kind of assay: [3H] muscimol radioligand binding assay, membranes of High Five cells infected with vBP8-Rdl. On the procedure: as §1
(§2) The reactions were incubated for 90 minutes at 4° C., and then terminated by filtration through Whatman GF/B glass fiber filters. Filters were washed with two 5 mL aliquots of cold buffer, and the radioactivity remaining on the filters was determined by liquid scintillation. Multiple assays were performed to test numerous compounds.

The target of the next assay is Rat brain. Kind of assay: [3H] muscimol binding, rat brain (previous assays of the inventors). The note with it: previous assays by the inventors; for IC50: half-maximal displacement of [3H] muscimol. From the text:
Data from fly heads and rat brains were obtained as described in Table 2.

The target in assay [2] is T3, Drosophila Rdl, Grd and LCCH3 (Drosophila melanogaster, UniProt P25123+Q08832+Q24352).
T3 construct: excised the full-length cDNA encoding Rdl; made in house; host or cells: High Five (Trichoplusia ni) cells, co-infected with vBP8-Grd, vBP8-LCCH3 and vBP8-Rdl
T3 sequence (P25123 45-606): T2 sequence (P25123 45-606)
T3 sequence (Q24352 59-686): T1 sequence (Q24352 59-686)
T3 sequence (Q08832 21-496): T1 sequence (Q08832 21-496)
In words: [3H] muscimol radioligand binding assay, membranes of High Five cells infected with vBP8-Grd/vBP8-LCCH3/vBP8-Rdl. As to the method:
as §1, §2

The target of a further assay is T4, Human α1 and rat β2 (UniProt P14867+P63138).
T4 construct: made in house; host or cells: insect cells, baculoviruses vEV-humα1 and vEV-ratβ2
In words: [3H] muscimol radioligand binding assay, positive control receptor expressed in insect cells. Conditions: [3H] muscimol 5 nM, insect cell membranes.

Another assay addresses T5, Drosophila LCCH3 (Drosophila melanogaster, UniProt Q08832).
T5 construct: made in house; host or cells: High Five (Trichoplusia ni) cells, baculovirus vBP8-LCCH3
T5 sequence (Q08832 21-496): T1 sequence (Q08832 21-496)
Kind of assay: [3H] muscimol radioligand binding assay, membranes of High Five cells infected with vBP8-LCCH3. Conditions: High Five cell membranes. As to the method: as §1, with “The membrane pellet was resuspended in 25 mL of 10 mM phosphate buffer pH 7.4, re-pelleted as above, and the pellet finally resuspended in 3 mL of buffer.” left out
(§3) The radioligand binding assays were composed of 200 μL membrane preparation (containing 125 μg protein), 100 μL of [^3 H] muscimol (to give a final concentration of 5 nM), 20 μL of unlabeled test compound, buffer or unlabeled muscimol, and 680 μL of 10 mM PBS, pH 7.4. […] Filters were washed with two 5 mL aliquots of cold buffer, and the radioactivity remaining on the filters was determined by liquid scintillation. […]

The next assay has as its target T6, Drosophila Grd (Drosophila melanogaster, UniProt Q24352).
T6 construct: made in house; host or cells: High Five (Trichoplusia ni) cells, baculovirus vBP8-Grd
T6 sequence (Q24352 59-686): T1 sequence (Q24352 59-686)
In words: [3H] muscimol radioligand binding assay, membranes of High Five cells infected with vBP8-Grd. The note with it: High Five cell membranes. As to the method: as §1, with “The membrane pellet was resuspended in 25 mL of 10 mM phosphate buffer pH 7.4, re-pelleted as above, and the pellet finally resuspended in 3 mL of buffer.” left out
as §3

The target in assay [3] is T1, Drosophila Grd and LCCH3. Kind of assay: [3H] muscimol radioligand binding assay, membranes of High Five cells co-infected with vBP8-Grd/vBP8-LCCH3. This is another data set of the same source.
[4] abbreviates: half-maximal displacement of [3H] muscimol, read-out: IC50, Grd/LCCH3.
Setting [5] is: half-maximal displacement of [3H] muscimol, read-out: IC50, Rdl.
[6] abbreviates: [3H] muscimol 5 nM, non-specific = 10 μM GABA.
[7] abbreviates: [3H] muscimol saturation binding.
The mark [8] stands for this setting: [3H] muscimol 5 nM, High Five cell membranes, non-specific = 10 μM GABA.
Where [9] appears, read: [3H] muscimol saturation binding, High Five cell membranes.

Read-outs that look alike come from different tables or passages of the source. Some results are limits rather than exact numbers.

T4 sequence (P14867 28-456): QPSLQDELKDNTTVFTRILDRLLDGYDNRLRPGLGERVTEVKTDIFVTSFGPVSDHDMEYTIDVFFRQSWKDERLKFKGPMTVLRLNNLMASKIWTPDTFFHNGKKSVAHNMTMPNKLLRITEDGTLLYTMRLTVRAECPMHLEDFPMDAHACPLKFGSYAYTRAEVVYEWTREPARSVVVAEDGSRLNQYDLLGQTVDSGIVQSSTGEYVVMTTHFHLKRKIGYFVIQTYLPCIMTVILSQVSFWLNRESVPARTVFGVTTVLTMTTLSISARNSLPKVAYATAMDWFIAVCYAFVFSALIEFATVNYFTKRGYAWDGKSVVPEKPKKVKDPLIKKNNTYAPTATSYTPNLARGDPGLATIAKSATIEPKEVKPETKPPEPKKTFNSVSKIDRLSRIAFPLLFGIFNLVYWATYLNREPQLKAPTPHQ
T4 sequence (P63138 25-474 limits assumed): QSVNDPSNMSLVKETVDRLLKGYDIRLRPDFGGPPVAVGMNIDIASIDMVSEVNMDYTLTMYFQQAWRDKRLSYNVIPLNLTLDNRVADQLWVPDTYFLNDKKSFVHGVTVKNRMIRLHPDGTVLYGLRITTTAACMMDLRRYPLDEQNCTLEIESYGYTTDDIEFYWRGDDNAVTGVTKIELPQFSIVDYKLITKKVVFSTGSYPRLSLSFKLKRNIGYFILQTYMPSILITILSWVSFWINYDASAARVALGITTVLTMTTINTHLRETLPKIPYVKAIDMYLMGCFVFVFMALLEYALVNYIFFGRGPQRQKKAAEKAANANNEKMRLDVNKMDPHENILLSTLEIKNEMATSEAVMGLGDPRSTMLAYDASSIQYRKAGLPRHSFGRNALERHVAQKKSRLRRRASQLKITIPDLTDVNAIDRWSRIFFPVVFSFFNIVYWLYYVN

Turning to `O=C(O)C1=CCNCC1` [Isoguavacine], the IC50 was 0.1 µM in the assay with Housefly heads; 0.19 µM on Drosophila Grd and LCCH3 [1] (setting [4]); 0.26 µM on Drosophila Rdl (setting [5]); 0.289 µM on Rat brain.

For the compound `O=C(O)C1CCNCC1` [Isonipecotic acid], the IC50 on Drosophila Grd and LCCH3 [1] (setting [4]) is 2.68 µM; on Drosophila Rdl (setting [5]), 1.7 µM; on Rat brain, 1.43 µM.

Take `NCc1cc(=O)[nH]o1` [Muscimol]: the IC50 in the assay with Housefly heads was 0.03 µM; in [2] (half-maximal displacement of [3H] muscimol), 0.023 µM; on Drosophila Grd and LCCH3 [1] (setting [4]), 0.015 µM; at Drosophila Rdl (setting [5]), 0.012 µM; on Rat brain, 0.043 µM.

Turning to `O=S(=O)(O)C1CCNCC1` [Piperidine-4-sulfonate], the IC50 was greater than 1000 µM on Drosophila Grd and LCCH3 [1] (setting [4]); greater than 1000 µM at Drosophila Rdl (setting [5]).

On to `CP(=O)(O)CCCN` [SKF-97541], for which the IC50 was greater than 1000 µM on Drosophila Grd and LCCH3 [1]; greater than 1000 µM at Drosophila Rdl; greater than 1000 µM on Rat brain.

Consider `NCc1cc(O)no1` [[^3 H] muscimol], for which the “% Specific Binding” value is recorded as 80% at Human α1 and rat β2; 10% on Drosophila LCCH3 (setting [6]); 10% at Drosophila Grd (setting [6]); 60% in assay [2] (setting [8]); 85% at Drosophila Grd and LCCH3 [1] (setting [8]); 55% at Drosophila Rdl (setting [8]). Besides, the Kd is greater than 10 µM at Drosophila LCCH3 (setting [7]); greater than 10 µM at Drosophila Grd (setting [7]); 0.04 µM at Housefly heads (housefly heads); 0.038 µM in assay [2] (setting [9]); 0.012 µM at Drosophila Rdl (setting [9]); 0.028 µM at Rat brain (rat brain). The Kd on Drosophila Grd and LCCH3 [3] (setting [9]) is 0.012 µM. The Bmax is 0.64 pmol [3H] muscimol bound per m in assay [2] (High Five cell membranes); 0.11 pmol [3H] muscimol bound per m on Drosophila Rdl (High Five cell membranes); 1.85 pmol [3H] muscimol bound per m at Drosophila Grd and LCCH3 [3] (High Five cell membranes). The “specific binding of [3H]muscimol” value on Drosophila Grd and LCCH3 [1] (cells 3 days after co-infection with vBP8-Grd and vBP8-LCCH3) was “High levels of specific binding”. On Drosophila Grd and LCCH3 [3] (Grd/LCCH3 co-infected versus Rdl-infected cells), the “maximum number of binding sites (Bmax) relative to vBP8-Rdl-infected cells” value is on record as 15 fold.

As to `NC/C=C\C(=O)O` [cis-4-amino-crotonic acid], the IC50 at Drosophila Grd and LCCH3 [1] (setting [4]) is 1.62 µM; at Drosophila Rdl (setting [5]) it was 2.91 µM; at Rat brain, greater than 1000 µM.
